Experimental data published in PMC12080252, “Daphnia magna as an Alternative Model for (Simultaneous) Bioaccumulation and Chronic Toxicity Assessment—Controlled Exposure Study Indicates High Hazard of Heterocyclic PAHs” (Environmental Science & Technology, 2025).
Values joined by “and” are separate entries in the source; they are usually repeats but may differ in a detail not shown here. Identical values can stand only once.

Experiments:
[1] = Chronic reproduction toxicity test (OECD 211) with passive dosing; format: in vivo, Daphnia magna; settings: Daphnia magna, in vivo, other: waterborne exposure by passive dosing from PDMS disks, 21-day test, read-out: % offspring mortality of total offspring
Protocol: (§1) Chronic toxicity tests with D. magna were performed according to the OECD guideline 211^2 using the passive dosing method. Two days before the tests, the exposure solution was predosed by shaking 10 PDMS disks loaded with the test substance in 1 L of medium for 48 h. Each test vessel (250 mL) was first flushed with the dosed solution to equilibrate the vessel walls, then filled with 100 mL of test solution, one PDMS disk, and one juvenile D. magna (<24 h old). The tests were conducted in loosely closed bottles to allow for adequate gas exchange and limit evaporation. The exposure medium was changed three times per week, and the animals were fed D. subspicatus daily (0.2 mg C/Daphnia/day). The number of offspring per adult and behavioral or physiological effects (e.g., size, movement, unhatched eggs) were recorded daily (except weekends). Dissolved oxygen, pH and temperature were also measured each week.
(§2) Tests were performed under static conditions (20 °C, 16:8 h light/dark cycle, 1 klux). Each compound was tested in 10 replicates for controls and limit tests (a single high concentration exposure to screen for significant toxic effects) and with 6 or 10 replicates for concentration–response tests. Reuse of silicone disks was included in some experiments (Table S3). Reproductive inhibition was assessed by counting offspring over 21 days. The number of offspring per mother in treatment groups was compared to controls, and the percent inhibition per replicate was used to generate concentration–response curves. A minimum of five concentrations per compound were tested to determine EC10, EC20, and EC50 values. For each test, three sets of polymers were rotated between loading, dosing, and exposure stages (Figure S2). Initial (before animal and food addition) and final (after 2–3 days of exposure, just before the medium change) water concentrations (CW) were monitored, with the latter collected after centrifugation to remove biomass (e.g., algae, carapaces, or feces).
(§3) All data are presented as average ± standard deviation. Student’s t test was used to analyze significance (p-value >0.05 considered insignificant). Concentration–response curve parameters (effective concentrations and confidence limits) and plots were generated using GraphPad Prism software (V6.01, GraphPad Software, La Jolla, CA, USA). The exposure concentrations were log10 transformed before fitting. Then a four parameters logistic model with variable slope was used to obtain EC10, EC20 and EC50 (see section S5 in SI file for details). Effective chemical activities (EA50) for chronic toxicity were calculated as follows: [drawing 1] 1 […]
(§4) S5. Concentration-response curve (CRC) fitting procedure
(§5) GraphPad Prism version 9.5.1 was used to fit CRC and obtain EC10, EC20, EC50 values and their confidence intervals. The exposure concentrations were log10 transformed before fitting. Then a four parameters logistic model with variable slope was used that describes the response as a function of following four parameters: minimum response (the Bottom), maximum response (the Top), the concentration required to cause a response half-way between the minimum and maximum (the EC50) and the slope of the curve […]
(§6) concentration. The Top was constrained to 100, the Bottom was constrained to 0, the HillSlope was not […]
(§7) !"# %& = !"# %&* − , × !"# 3 * 4
(§8) (, + ,((!"# %&'(<=)×-.!!/!"01)
(§9) Figure S7 Concentration-response curves of four NSO-PAHs based on reproductive inhibition during 21-day chronic toxicity tests with D. magna.
(§10) (1 picture or pasted object on this page, not shown here)

Daphnia magna = assay: as above; format: in vivo; settings: for EC10: 21-day reproduction inhibition; for % inhibition, avr.: average of vessels; for #live offspring per mother, Total: one value per vessel; for wet weight of parent daphnids, change relative to control: end of 21-d exposure
Protocol: as §1, §2, §3, §4, §5, §6, §7, §8, §9, §10

[2] = cited from earlier work
[3] = DNF 0.2 µg/L (0.125 g/L methanol), 21 days
[4] = DNF 0.41 µg/L (0.5 g/L methanol), 21 days
[5] = DNF 1.24 µg/L (1 g/L methanol), 21 days
[6] = DNF […] (0.25 g/L methanol), 21 days
[7] = DNF avr. medium concentration 1.35 µg/L, conc. of methanol for dosing 1.5 g/L, 21 days, single vessels 1-6 (replicates)

c1ccc2c(c1)ccc1oc3ccc4ccccc4c3c12 [DNF, dinaphtho[2,1-b:1′,2′-d]furan]
mortality at 21 days, 0.18 µg/L ([1]; 0.18 µg/L (Fig. S8)): 2.6%
mortality at 21 days, 0.24 µg/L ([1]; 0.24 µg/L (Fig. S8)): 5%
mortality at 21 days, 0.39 µg/L ([1]; 0.39 µg/L (Fig. S8)): 5.1%
mortality at 21 days, 1.16 µg/L ([1]; 1.16 µg/L (Fig. S8)): 11.8%
mortality at 21 days, 1.3 µg/L ([1]; 1.30 µg/L (Fig. S8)): 16.7%
mortality at 21 days, 1.44 µg/L ([1]; 1.44 µg/L (Fig. S8)): 42.2%
EC10 (Daphnia magna; 97.5-2.5% confidence interval in brackets): 0.14 (0.05-0.28) μg L^-1
EC10 (Daphnia magna; confidence interval in brackets): 0.52 (0.18-1.03) nmol L^-1
growth of parent D. magna (wet weight) (Daphnia magna; 21-day test, p-value <0.05): did not except at saturation
LOEC (lowest observed effect concentration, reproduction inhibition) (Daphnia magna; 21 days, p-value <0.05 vs controls): 0.2 μg L^–1
#average live offspring (Daphnia magna; [3]): 75
%offspring mortality (Daphnia magna; [3]): 2.61%
% inhibition, avr. (Daphnia magna; [3]): 12.9%
#total live offspring (Daphnia magna; DNF 0.2 µg/L (0.125 g/L methanol), 21 days, sum of all vessels): 447
% inhibition (per vessel) (Daphnia magna; DNF 0.2 µg/L (0.125 g/L methanol), live offspring vs controls, 21 days, per vessel): 15.8%
#average live offspring (Daphnia magna; [4]): 63
%offspring mortality (Daphnia magna; [4]): 5.09%
% inhibition, avr. (Daphnia magna; [4]): 25.8%
#total live offspring (Daphnia magna; DNF 0.41 µg/L (0.5 g/L methanol), 21 days, sum of all vessels): 317
mother animal mortality (Daphnia magna; DNF 0.41 µg/L (0.5 g/L methanol), vessel 3, day 5): dead
#average live offspring (Daphnia magna; [5]): 59
%offspring mortality (Daphnia magna; [5]): 11.81%
% inhibition, avr. (Daphnia magna; [5]): 31.6%
#total live offspring (Daphnia magna; DNF 1.24 µg/L (1 g/L methanol), 21 days, sum of all vessels): 351
#average live offspring (Daphnia magna; [6]): 69
%offspring mortality (Daphnia magna; [6]): 4.95%
% inhibition, avr. (Daphnia magna; [6]): 19.1%
#total live offspring (Daphnia magna; DNF […] (0.25 g/L methanol), 21 days, sum of all vessels): 346
mother animal mortality (Daphnia magna; DNF […] (0.25 g/L methanol), vessel 6, day 5): dead
#live offspring per mother, Total (Daphnia magna; DNF avr. medium concentration 0.2 µg/L (methanol for dosing 0.125 g/L), 21 days): 75 and 64 and 72 and 66 and 98
#live offspring per mother, Total (Daphnia magna; DNF avr. medium concentration 0.41 µg/L (methanol for dosing 0.5 g/L), 21 days): 59 and 75 and 67 and 55 and 61
#live offspring per mother, Total (Daphnia magna; DNF avr. medium concentration 1.24 µg/L (methanol for dosing 1 g/L), 21 days): 62 and 51 and 53 and 60 and 50 and 75
%offspring mortality (Daphnia magna; DNF avr. medium concentration 1.35 µg/L, conc. of methanol for dosing 1.5 g/L, 21 days): 16.71%
% inhibition, avr. (live offspring per mother) (Daphnia magna; DNF avr. medium concentration 1.35 µg/L, conc. of methanol for dosing 1.5 g/L, 21 days, average of 6 vessels): 39.8%
#average live offspring (Daphnia magna; DNF avr. medium concentration 1.35 µg/L, conc. of methanol for dosing 1.5 g/L, 21 days, mean of 6 vessels): 52
#dead offspring per mother, Total (per vessel) (Daphnia magna; [7]): 9 and 12 and 16 and 5 and 8
#live offspring per mother, Total (per vessel) (Daphnia magna; [7]): 49 and 74 and 37 and 40 and 53 and 56
% inhibition (live offspring per mother, per vessel) (Daphnia magna; [7]): 42.7% and 13.5% and 56.7% and 53.2% and 38.0% and 34.5%
#total live offspring (Daphnia magna; DNF avr. medium concentration 1.35 µg/L, conc. of methanol for dosing 1.5 g/L, 21 days, sum of 6 vessels): 309
EA50 (effective chemical activity) (Daphnia magna; EC50/subcooled liquid solubility, eq 1): 0.032 unitless
Classification according to REACH Annex XIII (Daphnia magna; chronic EC10 < 10 μg L^–1): toxic to aquatic life
CTLBB (critical target lipid body burden) (Daphnia magna; derived from chronic EC10 using eq 3): 3.4 μmol g^-1 octanol
wet weight of parent daphnids, change relative to control (Daphnia magna; 0.18 µg/L (Fig. S9)): +1%
wet weight of parent daphnids, change relative to control (Daphnia magna; 0.24 µg/L (Fig. S9)): -2%
wet weight of parent daphnids, change relative to control (Daphnia magna; 0.39 µg/L (Fig. S9)): -6%
wet weight of parent daphnids, change relative to control (Daphnia magna; 1.16 µg/L (Fig. S9)): 2%
wet weight of parent daphnids, change relative to control (Daphnia magna; 1.30 µg/L (Fig. S9)): -6%
wet weight of parent daphnids, change relative to control (Daphnia magna; 1.44 µg/L (Fig. S9)): -27%
SW (water solubility) ([2]; measured in previous work): 1.5 ng/mL
log KOW ([2]; n-octanol-water partition coefficient): 6.89
log KOC ([2]; organic carbon-water partition coefficient): 6.61
